In ChEMBL document CHEMBL1140022, “Adenosine phosphonate inhibitors of lipid II: alanyl tRNA ligase MurM from Streptococcus pneumoniae” (Bioorg Med Chem Lett, 2007) one finds IC50 and Activity data, which are given here for three molecules.

SMILES strings stand for the structures. The source made the active and inactive calls. No cut-off for these calls is given here.

A short description of experiment [1]: Inhibition of Streptococcus pneumoniae 159 MurM.
Experiment [2] deals with Streptococcus pneumoniae. The experiment is described as follows: Antibacterial activity against penicillin-resistant Streptococcus pneumoniae 159 at 1 mM. Type of experiment: functional, organism-based.
In experiment [3] the test system is Streptococcus pneumoniae. The experiment is described as follows: Inhibition of Streptococcus pneumoniae 159 MurM at 1 mM.

By IC50 is commonly meant the point on the concentration scale where inhibition reaches its midpoint. `CC(N)P(=O)(O)O[C@H]1C[C@H](n2cnc3c(N)ncnc32)O[C@@H]1CO` (some centres undefined): the IC50 in experiment [1] turned out to be 100 µM. In addition, the outcome in the experiment with Streptococcus pneumoniae [2] was inactive.
`CC(N)P(=O)(O)O[C@@H]1[C@H](O)[C@@H](CO)O[C@H]1n1cnc2c(N)ncnc21` (some centres undefined): the midpoint of inhibition in experiment [1], the IC50, lay at 780 µM.
`COc1ccc(CC(N)C(=O)N[C@H]2[C@@H](O)[C@H](n3cnc4c(N(C)C)ncnc43)O[C@@H]2CO)cc1` (single isomer, unassigned): in the experiment with Streptococcus pneumoniae [3], the outcome was inactive.
